Among the data in patent publication US10100022B2, “Sphingosine kinase inhibitors” (University of Virginia Patent Foundation, priority 2014, dated 2018) are Ki values, retold here.

Assay [1] has as its target T1, human sphingosine kinase type 2 (hSPHK2) (Homo sapiens, UniProt Q9NRA0).
T1 construct: purchased; host or cells: Sf9 insect cells (baculovirus)
T1 sequence (Q9NRA0 1-654): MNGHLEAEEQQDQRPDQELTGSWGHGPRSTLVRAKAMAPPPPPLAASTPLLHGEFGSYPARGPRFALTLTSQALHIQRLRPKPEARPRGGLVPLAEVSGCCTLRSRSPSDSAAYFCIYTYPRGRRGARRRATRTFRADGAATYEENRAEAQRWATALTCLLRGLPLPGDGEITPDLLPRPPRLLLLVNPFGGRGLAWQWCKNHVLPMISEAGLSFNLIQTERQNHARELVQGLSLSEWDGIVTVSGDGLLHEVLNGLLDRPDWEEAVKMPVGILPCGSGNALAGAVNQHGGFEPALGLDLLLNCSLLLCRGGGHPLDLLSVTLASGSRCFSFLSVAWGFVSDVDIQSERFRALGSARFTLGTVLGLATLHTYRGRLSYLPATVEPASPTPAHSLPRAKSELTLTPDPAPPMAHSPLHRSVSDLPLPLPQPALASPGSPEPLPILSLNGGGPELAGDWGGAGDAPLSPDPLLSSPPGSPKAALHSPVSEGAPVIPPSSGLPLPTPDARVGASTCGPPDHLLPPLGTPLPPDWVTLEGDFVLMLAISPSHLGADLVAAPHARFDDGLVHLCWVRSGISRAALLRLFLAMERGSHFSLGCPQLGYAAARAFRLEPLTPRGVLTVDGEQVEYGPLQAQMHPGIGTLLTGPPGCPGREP
Kind of assay: Sphingosine kinase assay, recombinant human SPHK2 ([32P]S1P product, scintillation counting). Conditions: read-out: activity hSPHK2 (range estimate of KI). Type of assay: biochemical. The procedure:
(§1) Recombinant baculovirus encoding human sphingosine kinase type 1 (SPHK1) was used to infect Sf9 insect cells and after 2-5 days, cleared lysates were prepared and used without further purification. Human SPHK2, which was partially purified from baculovirus-infected Sf9 cell lysates, was purchased from a commercial source. Sphingosine kinase assays were performed using standard protocols. Product [^32P]S1P was recovered by binding to cation exchange paper and quantified by scintillation counting.

The target of assay [2] is T2, human sphingosine kinase type 1 (hSPHK1) (Homo sapiens, UniProt Q9NYA1).
T2 construct: made in house; host or cells: Sf9 insect cells (baculovirus)
The assay can be described thus: Sphingosine kinase assay, recombinant human SPHK1 ([32P]S1P product, scintillation counting). Type of assay: biochemical. As to conditions: read-out: activity hSPHK1 (range estimate of KI). The procedure: as §1

The structures appear in SMILES notation.

T2 sequence (Q9NYA1 whole entry): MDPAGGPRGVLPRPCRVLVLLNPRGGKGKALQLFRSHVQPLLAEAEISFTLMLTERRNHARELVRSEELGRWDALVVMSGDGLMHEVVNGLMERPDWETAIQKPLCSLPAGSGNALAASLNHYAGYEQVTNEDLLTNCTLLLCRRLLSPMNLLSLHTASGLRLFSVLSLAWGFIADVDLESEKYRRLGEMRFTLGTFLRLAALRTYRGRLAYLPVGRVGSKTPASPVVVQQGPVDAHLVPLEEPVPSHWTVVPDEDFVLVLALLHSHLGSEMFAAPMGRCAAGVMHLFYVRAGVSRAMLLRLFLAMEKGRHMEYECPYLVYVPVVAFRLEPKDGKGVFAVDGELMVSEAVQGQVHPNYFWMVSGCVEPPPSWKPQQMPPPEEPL

As for `CCCCCCCn1cc(-c2noc([C@@H]3CCCN3C(=N)N)n2)c2ccccc21` [Compound 1A, (S)-amino(2-(3-(1-heptyl-1H-indol-3-yl)-1,2,4-oxadiazol-5-yl)pyrrolidin-1-yl)methaniminium chloride], the Ki in assay [1] and in assay [2] was above 10 µM each time. With `CCCCCCCCCOc1ccc(-c2noc([C@@H]3CCCN3C(=N)N)n2)cc1C(F)(F)F` [Compound 1B], the Ki – broadly, a dissociation constant, usually derived from enzyme kinetics or from competition with a known ligand – in assay [1] was below 1 µM; in assay [2], above 10 µM.

Turning to `CCCCCCCCCn1cc(-c2noc([C@@H]3CCCN3C(=N)N)n2)c2ccccc21` [Compound 2A, (S)-amino(2-(3-(1-nonyl-1H-indol-3-yl)-1,2,4-oxadiazol-5-yl)pyrrolidin-1-yl)methaniminium chloride], the Ki in assay [1] and in assay [2] was above 10 µM in each case.

Regarding `CCCCCCCCOc1ccc(-c2noc([C@@H]3CCCN3C(=N)N)n2)cc1C(F)(F)F` [Compound 2B], the Ki in assay [2] is above 10 µM.

With `CCCCCCCCCCCCn1cc(-c2noc([C@@H]3CCCN3C(=N)N)n2)c2ccccc21` [Compound 3A, (S)-amino(2-(3-(1-dodecyl-1H-indol-3-yl)-1,2,4-oxadiazol-5-yl)pyrrolidin-1-yl)methaniminium chloride], the Ki in assay [1] is below 1 µM.

Turning to `CCCCCCCCCc1ccc(-c2noc([C@@H]3CCCN3C(=N)N)n2)cc1C(F)(F)F` [Compound 3B], the values for the inhibition constant Ki in assay [1] and in assay [2] were below 1 µM and above 10 µM, respectively. On the same counts, the results for `CCCCCCCCCCCn1cc(-c2noc([C@@H]3CCCN3C(=N)N)n2)c2ccccc21` [Compound 4A, (S)-amino(2-(3-(1-undecyl-1H-indol-3-yl)-1,2,4-oxadiazol-5-yl)pyrrolidin-1-yl)methaniminium chloride] are 1 to 10 µM and above 10 µM.

Turning to `CCCCCCCCOc1ccc(-c2noc([C@@H]3CCCN3C(=N)N)n2)cc1Br` [Compound 4B], the values for the Ki in assay [1] and in assay [2] were below 1 µM and above 10 µM, respectively. As to `CCCCCCCCc1ccc(-c2noc([C@@H]3CCCN3C(=N)N)n2)cc1C(F)(F)F` [Compound 5A, (S)-Amino(2-(3-(4-octyl-3-(trifluoromethyl)phenyl)-1,2,4-oxadiazol-5-yl)pyrrolidin-1-yl)methaniminium chloride], the inhibitory constant (Ki) in assay [1] is below 1 µM; in assay [2], above 10 µM. In the case of `CCCCCCCCOc1ccc(-c2nnc([C@@H]3CCCN3C(=N)N)s2)cc1C(F)(F)F` [Compound 5B], the values for the Ki in assay [1] and in assay [2] were below 1 µM and above 10 µM, respectively. `CCCCCCCCOc1ccc(-c2noc([C@@H]3CCCN3C(=N)N)n2)cc1C` [Compound 6B]: the Ki in assay [1] is below 1 µM; in assay [2], above 10 µM.

As for `CCCCCCCCCCn1cc(-c2noc([C@@H]3CCCN3C(=N)N)n2)c2ccccc21` [Compound 7A, (S)-amino(2-(3-(1-decyl-1H-indol-3-yl)-1,2,4-oxadiazol-5-yl)pyrrolidin-1-yl)methaniminium chloride], the Ki in assay [1] was below 1 µM. `CCCCCCCCOc1c(C)cc(-c2noc([C@@H]3CCCN3C(=N)N)n2)cc1C` [Compound 7B]: the Ki in assay [1] was below 1 µM; in assay [2], above 10 µM. Turning to `CCCCCCCCOc1ccc(-c2noc([C@@H]3C[C@@H](O)CN3C(=N)N)n2)cc1C(F)(F)F` [Compound 8A, amino((2S,4R)-4-hydroxy-2-(3-(4-(octyloxy)-3-(trifluoromethyl)phenyl)-1,2,4-oxadiazol-5-yl)pyrrolidin-1-yl)methaniminium chloride], the Ki in assay [1] was below 1 µM; in assay [2] it was above 10 µM.

With `CCCCCCCn1ccc2c(-c3noc([C@@H]4CCCN4C(=N)N)n3)cccc21` [Compound 8B, (S)-amino(2-(3-(1-heptyl-1H-indol-4-yl)-1,2,4-oxadiazol-5-yl)pyrrolidin-1-yl)methaniminium chloride], the Ki in assay [1] was below 1 µM; in assay [2], above 10 µM. As to `CCCCCCCCOc1ccc(-c2noc([C@@H]3C[C@H](O)CN3C(=N)N)n2)cc1C(F)(F)F` [Compound 9A, amino((2S,4S)-4-hydroxy-2-(3-(4-(octyloxy)-3-(trifluoromethyl)phenyl)-1,2,4-oxadiazol-5-yl)pyrrolidin-1-yl)methaniminium chloride], the Ki in assay [1] and in assay [2] was above 10 µM each time.

In the case of `CCCCCCCCn1ccc2c(-c3noc([C@@H]4CCCN4C(=N)N)n3)cccc21` [Compound 9B, (S)-amino(2-(3-(1-octyl-1H-indol-4-yl)-1,2,4-oxadiazol-5-yl)pyrrolidin-1-yl)methaniminium chloride], the Ki in assay [1] was below 1 µM; in assay [2] it was above 10 µM. The corresponding values for `CCCCCCCCOc1ccc(-c2noc([C@@H]3[C@H](O)CCN3C(=N)N)n2)cc1C(F)(F)F` [Compound 10A, amino((2S,3R)-3-hydroxy-2-(3-(4-(octyloxy)-3-(trifluoromethyl)phenyl)-1,2,4-oxadiazol-5-yl)pyrrolidin-1-yl)methaniminium chloride] are above 10 µM and above 10 µM. For `CCCCCCCCCn1ccc2c(-c3noc([C@@H]4CCCN4C(=N)N)n3)cccc21` [Compound 10B, (S)-amino(2-(3-(1-nonyl-1H-indol-4-yl)-1,2,4-oxadiazol-5-yl)pyrrolidin-1-yl)methaniminium chloride], the results for the Ki in assay [1] and in assay [2] were below 1 µM and above 10 µM, respectively. Consider `CCCCCCCCOc1ccc(-c2noc([C@@H]3CCCN3C(=N)N)n2)cc1F` [Compound 11A, (S)-Amino(2-(3-(3-fluoro-4-(octyloxy)phenyl)-1,2,4-oxadiazol-5-yl)pyrrolidin-1-yl)methaniminium chloride], for which the Ki in assay [1] and in assay [2] was above 10 µM throughout.

As to `CCCCCCCCCCn1ccc2c(-c3noc([C@@H]4CCCN4C(=N)N)n3)cccc21` [Compound 11B, (S)-amino(2-(3-(1-decyl-1H-indol-4-yl)-1,2,4-oxadiazol-5-yl)pyrrolidin-1-yl)methaniminium chloride], the Ki in assay [1] is below 1 µM; in assay [2] it was above 10 µM.

Regarding `CCCCCOc1ccc2cc(-c3noc([C@@H]4CCCN4C(=N)N)n3)ccc2c1` [Compound 12A, (S)-amino(2-(3-(6-(pentyloxy)naphthalen-2-yl)-1,2,4-oxadiazol-5-yl)pyrrolidin-1-yl)methaniminium chloride], the Ki in assay [1] and in assay [2] was above 10 µM throughout. Take `CCCCCCOc1ccc(-c2noc([C@@H]3CCCN3C(=N)N)n2)cc1C(F)(F)F` [Compound 12B]: the values for the Ki in assay [1] and in assay [2] were below 1 µM and 1 to 10 µM, respectively. For `CCCCCCCOc1ccc2cc(-c3noc([C@@H]4CCCN4C(=N)N)n3)ccc2c1` [Compound 13A, (S)-amino(2-(3-(6-(heptyloxy)naphthalen-2-yl)-1,2,4-oxadiazol-5-yl)pyrrolidin-1-yl)methaniminium chloride], the Ki in assay [1] is 1 to 10 µM; in assay [2], above 10 µM. Consider `CCCCCCCCOc1ccc(-c2noc([C@@H]3CCN3C(=N)N)n2)cc1C(F)(F)F` [Compound 13B], for which the Ki in assay [1] is below 1 µM; in assay [2], 1 to 10 µM. In the case of `CC(C)COc1ccc2cc(-c3noc([C@@H]4CCCN4C(=N)N)n3)ccc2c1` [Compound 14A, (S)-amino(2-(3-(6-isobutoxynaphthalen-2-yl)-1,2,4-oxadiazol-5-yl)pyrrolidin-1-yl)methaniminium chloride], the Ki in assay [1] and in assay [2] was above 10 µM each time. For `CCCCCOc1ccc2cc(-c3noc([C@@H]4[C@@H](O)CCN4C(=N)N)n3)ccc2c1` [Compound 14B, Amino((2S,3S)-3-hydroxy-2-(3-(6-(pentyloxy)naphthalen-2-yl)-1,2,4-oxadiazol-5-yl)pyrrolidin-1-yl)methaniminium chloride], the Ki in assay [1] and in assay [2] was below 1 µM throughout. For `N=C(N)N1CCC[C@H]1c1nc(-c2ccc3cc(OCc4ccc(C(F)(F)F)cc4)ccc3c2)no1` [Compound 52A, (S)-amino(2-(3-(6-((4-(trifluoromethyl)benzyl)oxy)naphthalen-2-yl)-1,2,4-oxadiazol-5-yl)pyrrolidin-1-yl)methaniminium chloride], the Ki in assay [1] was 1 to 10 µM. Take `CCCCOc1ccc2cc(-c3noc([C@@H]4CCCN4C(=N)N)n3)ccc2c1` [Compound 56A, (S)-amino(2-(3-(6-(butyloxy)naphthalen-2-yl)-1,2,4-oxadiazol-5-yl)pyrrolidin-1-yl)methaniminium chloride]: the Ki in assay [1] was 1 to 10 µM. For the compound `CC1(C)CCC(C)(C)c2cc(COc3ccc4cc(-c5noc([C@@H]6CCCN6C(=N)N)n5)ccc4c3)ccc21` [Compound 71A, (S)-amino(2-(3-(6-((5,5,8,8-tetramethyl-5,6,7,8-tetrahydronaphthalen-2-yl)methoxy)naphthalen-2-yl)-1,2,4-oxadiazol-5-yl)pyrrolidin-1-yl)methaniminium chloride], the Ki in assay [1] is above 10 µM.
